Test results from publication PMC7490372, “Structural bases of IMiD selectivity that emerges by 5-hydroxythalidomide” (Nature Communications, 2020).

Molecular target: T1, cereblon (CRBN) (Homo sapiens, UniProt Q96SW2)
T1 construct: biotinylated CRBN (wheat cell-free); with SALL4
Assay: AlphaScreen-based ternary complex formation, dose-dependent, in cell-free translation mixtures

T1 sequence (Q96SW2 whole entry): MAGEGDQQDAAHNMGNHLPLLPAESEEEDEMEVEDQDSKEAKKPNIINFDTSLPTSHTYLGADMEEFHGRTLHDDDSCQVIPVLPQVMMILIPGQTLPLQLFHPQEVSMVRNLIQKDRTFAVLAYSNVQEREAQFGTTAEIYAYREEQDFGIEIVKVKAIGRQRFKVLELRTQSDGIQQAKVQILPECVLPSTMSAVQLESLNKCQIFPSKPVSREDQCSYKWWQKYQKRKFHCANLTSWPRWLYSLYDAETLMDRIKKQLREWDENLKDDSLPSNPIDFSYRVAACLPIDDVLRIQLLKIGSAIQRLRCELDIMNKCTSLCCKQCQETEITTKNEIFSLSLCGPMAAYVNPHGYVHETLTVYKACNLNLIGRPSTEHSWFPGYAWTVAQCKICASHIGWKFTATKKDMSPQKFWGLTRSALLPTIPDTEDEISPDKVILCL
T1 sequence (Q9UJQ4 whole entry partner): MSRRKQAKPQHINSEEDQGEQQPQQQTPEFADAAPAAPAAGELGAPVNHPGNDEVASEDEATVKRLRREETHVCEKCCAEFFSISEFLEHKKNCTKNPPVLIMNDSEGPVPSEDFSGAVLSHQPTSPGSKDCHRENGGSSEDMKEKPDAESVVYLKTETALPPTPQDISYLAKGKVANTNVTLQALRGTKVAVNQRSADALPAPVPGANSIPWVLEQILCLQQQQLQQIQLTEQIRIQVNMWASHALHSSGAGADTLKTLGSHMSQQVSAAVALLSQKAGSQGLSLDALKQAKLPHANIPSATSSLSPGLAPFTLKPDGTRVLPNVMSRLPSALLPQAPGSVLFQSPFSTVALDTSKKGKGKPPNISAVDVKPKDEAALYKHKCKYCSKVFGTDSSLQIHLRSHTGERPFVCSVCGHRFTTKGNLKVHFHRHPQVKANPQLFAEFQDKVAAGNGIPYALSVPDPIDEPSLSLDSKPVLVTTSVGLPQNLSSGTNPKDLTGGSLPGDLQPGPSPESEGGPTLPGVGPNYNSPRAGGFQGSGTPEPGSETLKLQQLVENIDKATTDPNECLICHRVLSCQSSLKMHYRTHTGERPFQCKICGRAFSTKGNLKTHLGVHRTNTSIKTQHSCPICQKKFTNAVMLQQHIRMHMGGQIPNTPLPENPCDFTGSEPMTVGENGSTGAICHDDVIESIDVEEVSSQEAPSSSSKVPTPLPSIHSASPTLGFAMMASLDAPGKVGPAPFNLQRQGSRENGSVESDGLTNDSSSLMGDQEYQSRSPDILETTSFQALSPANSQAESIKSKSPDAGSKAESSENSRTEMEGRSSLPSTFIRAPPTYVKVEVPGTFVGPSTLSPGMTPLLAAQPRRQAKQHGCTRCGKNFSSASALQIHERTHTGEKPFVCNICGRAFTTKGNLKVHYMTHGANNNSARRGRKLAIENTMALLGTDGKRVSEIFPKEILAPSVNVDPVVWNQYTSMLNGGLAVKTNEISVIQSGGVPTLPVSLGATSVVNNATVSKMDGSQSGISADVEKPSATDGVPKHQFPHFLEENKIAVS

## Nc1c(O)ccc2c1C(=O)N(C1CCC(=O)NC1=O)C2=O (stereo not shown) [5HP, 5-hydroxypomalidomide]
  AlphaScreen-based ternary complex formation, dose-dependent, in cell-free transl: Dose-dependent interaction of CRBN with SALL4 (left) and IKZF1 (right), as observed with the titration of racemate, Pom, and 5HP
